System: CD4+ effector memory T cells
Assay type: cell-based, human

In the case of “PSFYVYSRVKNLNSSRVPDLLV (Severe acute respiratory syndrome coronavirus 2) [SEQ ID NO: 7]”, the “suppression of proliferation and activation of CD4+ effector T cells” value is reported as “Suppressed Proliferation and Activation”.
